Laboratory results taken from patent US20100197688A1, “EPHA4 RTK INHIBITORS FOR TREATMENT OF NEUROLOGICAL AND NEURODEGENERATIVE DISORDERS AND CANCER” (priority 2008, published 2010).

Assays:
[1] = system: C2C12 mouse myoblast cell line; assay: Scratch wound assay, C2C12 cells; assay type: cell-based; details: for IC50: Mus musculus, C2C12, inflexion point, from AUC of % wound confluence, read-out: Scratch Assay C2C12 Cells IP; for Scratch Assay C2C12 Cells max inhibition in %: value in parentheses
Experimental: Cell Cultures: C2C12 mouse myoblast cell line (ATCC, VA, USA) was maintained in culture in DMEM media supplemented with 10% fetal bovine serum, 1 mM sodium pyruvate, 1.5 g/L sodium bicarbonate, and 100 IU of penicillin, […] of streptomycin. The cells were then differentiated into myotubes with DMEM supplemented with 2% horse serum for 3 days in 24 well ImageLock™ plate (Essen Instruments, Mich., USA).
Scratch wound assays are commonly used to assess the effects of drugs and drug candidates on the cellular proliferation and/or migration associated with wound closing. The IncuCyte™ system (Essen Instruments, Mich., USA), an automated imaging platform, provides ongoing, real-time images and quantitative data generated throughout the wound-closing process. Cells were maintained in 24 well ImageLock™ (Essen Instruments, Mich., USA) at 37° C. and […], until a confluent monolayer was achieved. A single scratch wound was then created in each well using the Essen Woundmaker™ (Essen Instruments, Mich., USA). It induced a mechanical scratch of the cell monolayer using plastic pipette tips (10-20 μl pipette tips, Eppendorff). Dead cells and other debris produced by the scratch were immediately washed with regular growth media. Cells were then treated with pharmacological agents and were placed into the IncuCyte™ at 37° C. and […], for two to three days. During this time, the wound area within each well was repeatedly imaged at fixed time intervals (every three hours). The IncuCyte™ scratch wound software generates a “wound mask” for each well. An initial wound mask is created for the first image (at time 0) that clearly delineates the border of the wound. A revised mask is generated for each subsequent image to track wound closure. Wound closure can be automatically monitored using the wound confluence (% confluence). Wound confluence can be graphed over time to evaluate the characteristics of wound closing in the presence of pharmacological agents.
The calculation of the area under the curve (AUC) of the % confluence function of the time gave a quantitative measurement of compounds efficacy on the scratch wound closing. Compounds were titrated in quadruplicate at 5 points concentration starting at […] with a two-fold increment. The percentage of inhibition was calculated from the AUCs at each dose in comparison with the AUCs of the control wells (1% DMSO). Concentration-response curves were represented and the concentrations at the inflexion point (IP) were calculated. The maximum effect was given by the maximum percent inhibition.

[2] = system: CHO-K1 cells; assay: Cell viability (Cell Glo) in EphA4 cell assay; assay type: cell-based, Chinese Hamster
Experimental: Transfection and Luciferase Assay: CHO-K1 cells were plated in T-175 cell culture bottle in DMEM medium supplemented with 10% fetal bovine serum, 1 mM sodium pyruvate, 2 mM L-glutamine and 1.5 g/L sodium bicarbonate. When cell reached 70-80% confluence, transfections were performed in T-175 culture flasks, using Lipofectamine 2000™ transfection reagent (Invitrogen) according to the manufacturer's directions. For the luciferase assay CHO-K1 cells were co-transfected the next day with […] of pGAS-Luc, 70 mg of EphA4, and 5 mg of empty vector pRL-CMV, which encoded the Renilla luciferase, and was included in the transfection mix for normalization. […] Cells were lysed the next day using the Reporter Lysis Buffer (Promega), and the luciferase activity was measured using the Dual Luciferase Assay (Promega) following the manufacturer's directions. The Firefly and Renilla luminescences are read consecutively on a Top-Count (Perkin-Elmer). Results are expressed as a ratio of the two luminsescence: Firefly Luciferase/Renilla Luciferase. Cell viability was assessed on parallel plates using the Cell Glo Assay (Promega) following the manufacturer's directions. Results are expressed as percent of cell death in comparison with vehicle-treated wells.

[3] = system: C2C12 cells; assay: Proliferation assay (cell confluence), C2C12 cells; assay type: cell-based, mouse; details: at 5 μM
Experimental: (§1) C2C12 were plated at 15,000 cells per well and then differentiated into myotubes with DMEM supplemented with 2% horse serum for 3 days in 24 well ImageLock™ plate (Essen Instruments, Mich., USA). Primary Rat cortical astrocytes were plated at 3.105 cells/ml onto 24 well ImageLock™ plate.
(§2) Cells were placed into the IncuCyte™ at 37° C. and 95% CO2/5% O2, for two to three days. During this time, the cells within each well were repeatedly imaged at fixed time intervals (every three hours). The IncuCyte™ system automatically monitored the proliferation using the percentage of confluence. Percent of confluence can be graphed over time to evaluate the characteristics of proliferation in the presence of pharmacological agents.
(§3) […] The percentage of reduction of cell confluence was calculated from the AUCs in comparison with the AUCs of the control wells (1% DMSO).

[4] = system: C2C12 cells; assay: Toxicity (percent of cell death), C2C12 cells; assay type: cell-based; details: 20 μM
Experimental: (§4) EphA4 kinase inhibition is assessed by both an enzymatic assay measuring the phosphorylation of a purified recombinant EphA4 kinase and a cell-based assay using the activation of pGas-Luciferase system in EphA4-transfected CHO-K1 cells. The functional effects of EphA4 RTK inhibitors on cell motility and proliferation is evaluated by the scratch wound assay. The effect of EphA4 RTK inhibitors is also directly measured on the cell confluence. The counterscreen assays (cell counterscreen, Src, Jak2 and P38α kinase) identified other potential inhibitory activities of compounds unrelated to EphA4 kinase. The toxicity is measured by the percent of cell death in the different cell assays. Values represent IC50 and IP in μM calculated from the dose-response curves. Values in parentheses give the maximum percent inhibition.

[5] = target: T1, human form of EphA4 receptor (Homo sapiens, UniProt P54764); assay: EphA4 cell-based assay (pGAS-luciferase in EphA4-transfected CHO-K1 cells); details: for IC50: inflexion point, read-out: EphA4 Cell Assay IP; for EphA4 Cell Assay maximum percent inhibition: value in parentheses
T1 construct: expressed in transfected cells; host or cells: CHO-K1, transiently transfected with EphA4 in pCMV6-XL5
Source text: A cell-based assay was used to measure the potency of the compounds on the human form of EphA4 receptor over-expressed in Chinese Hamster Ovary cell line, CHO-K1 cells (Merck Collection). The cell assay was based on a novel signaling pathway of EphA4, which involves activation of the tyrosine kinase Jak2 and the transcriptional activator Stat3 (39).
Reagents: The expression constructs of EphA4 were subcloned into the expression vector pCMV6-XL5 (Origene, Md., USA) (clone from Merck Kinase Library). The luciferase construct that was linked to the Stat1-responsive enhancer (pGAS-Luc) was bought from Stratagene (USA). The renilla construct that linked to an empty vector CMV was bought from Promega (USA).
Transfection and Luciferase Assay: CHO-K1 cells were plated in T-175 cell culture bottle in DMEM medium supplemented with 10% fetal bovine serum, 1 mM sodium pyruvate, 2 mM L-glutamine and 1.5 g/L sodium bicarbonate. When cell reached 70-80% confluence, transfections were performed in T-175 culture flasks, using Lipofectamine 2000™ transfection reagent (Invitrogen) according to the manufacturer's directions. For the luciferase assay CHO-K1 cells were co-transfected the next day with […] of pGAS-Luc, 70 mg of EphA4, and 5 mg of empty vector pRL-CMV, which encoded the Renilla luciferase, and was included in the transfection mix for normalization. Six hours after transfection the cells were trypsinized and plated at 4.105 cells/ml into 96 well Black/Clear Poly-D-Lysine coated plates (Biocoat) that had been pre-spotted with compounds. Cells were lysed the next day using the Reporter Lysis Buffer (Promega), and the luciferase activity was measured using the Dual Luciferase Assay (Promega) following the manufacturer's directions. The Firefly and Renilla luminescences are read consecutively on a Top-Count (Perkin-Elmer). Results are expressed as a ratio of the two luminsescence: Firefly Luciferase/Renilla Luciferase. Cell viability was assessed on parallel plates using the Cell Glo Assay (Promega) following the manufacturer's directions. Results are expressed as percent of cell death in comparison with vehicle-treated wells.
Compounds were titrated in duplicate at 10 points concentration starting at 100 μM with a 1.5 fold increment. Concentration-response curves were represented and the concentrations at the inflexion point (IP) were calculated. The maximum effect was given by the maximum percent inhibition calculated from the results of the control wells (containing only DMSO).

[6] = system: Primary Rat cortical astrocytes; assay: Proliferation assay (cell confluence), astrocytes; assay type: cell-based; details: at 5 μM
Experimental: as §1, §2, §3

[7] = system: Primary Rat cortical astrocytes; assay: Toxicity (percent of cell death), astrocytes; assay type: cell-based; details: 20 μM
Experimental: as §4

T1 sequence (P54764 20-986): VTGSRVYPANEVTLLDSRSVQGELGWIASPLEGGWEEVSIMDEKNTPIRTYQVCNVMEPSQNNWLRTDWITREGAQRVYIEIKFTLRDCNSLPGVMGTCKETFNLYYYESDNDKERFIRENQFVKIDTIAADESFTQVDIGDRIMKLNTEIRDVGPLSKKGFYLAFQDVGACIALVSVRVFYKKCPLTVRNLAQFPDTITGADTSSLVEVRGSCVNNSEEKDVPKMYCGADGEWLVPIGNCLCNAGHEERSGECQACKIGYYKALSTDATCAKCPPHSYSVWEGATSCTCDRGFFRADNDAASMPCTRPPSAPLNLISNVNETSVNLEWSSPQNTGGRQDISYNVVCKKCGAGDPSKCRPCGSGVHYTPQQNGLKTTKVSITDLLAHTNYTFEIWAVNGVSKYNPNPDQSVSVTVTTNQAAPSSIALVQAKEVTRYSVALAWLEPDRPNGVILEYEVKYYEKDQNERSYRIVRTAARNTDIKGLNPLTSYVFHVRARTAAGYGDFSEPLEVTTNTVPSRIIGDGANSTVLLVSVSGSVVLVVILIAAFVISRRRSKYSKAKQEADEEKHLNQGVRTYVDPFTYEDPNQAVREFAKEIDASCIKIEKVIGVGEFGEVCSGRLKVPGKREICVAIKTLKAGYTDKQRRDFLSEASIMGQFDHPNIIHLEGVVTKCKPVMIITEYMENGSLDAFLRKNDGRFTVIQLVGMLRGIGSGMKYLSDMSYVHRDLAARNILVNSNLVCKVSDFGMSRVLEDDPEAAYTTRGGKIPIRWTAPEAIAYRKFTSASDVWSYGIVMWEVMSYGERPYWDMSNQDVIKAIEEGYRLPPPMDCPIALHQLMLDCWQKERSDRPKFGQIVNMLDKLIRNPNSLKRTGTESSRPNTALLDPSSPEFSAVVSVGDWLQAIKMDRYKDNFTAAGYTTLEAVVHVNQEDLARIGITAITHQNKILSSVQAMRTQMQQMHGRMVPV

Row | SMILES | IC50 [1] [µM] | Scratch Assay C2C12 Cells max inhibition in % [1] [%] | Max Toxicity Cell Assay % of cell death ([2]; at 25 μM) [% at 25 μM] | % Reduction Confluence C2C12 Cells [3] [% at 5 μM] | Max Toxicity C2C12 in cells % of cell death [4] [% 20 μM] | IC50 [5] [µM] | EphA4 Cell Assay maximum percent inhibition [5] [%] | % Reduction of Confluence Astrocytes [6] [% at 5 μM] | Max Toxicity Astrocytes % of cell death [7] [% 20 μM] | Max Toxicity Cell Assay % of cell death ([2]; at 50 μM) [% at 50 μM]
1 | Cc1ccc(NC(=O)c2cccc(C(F)(F)F)c2)cc1-c1ccc(-n2cccn2)cc1 [Example 120] | 3.1 | 43 | 8 | 33.3 | 10 | 5.6 | 50 | – | – | –
2 | Cc1ccc(NC(=O)c2cccc(C(F)(F)F)c2)cc1-c1ccc(O)c(NC=O)c1 [Example 133] | 6 | 42 | – | 17.5 | 10 | 8.3 | 42 | 28.2 | 0 | 15
